Patent publication US8697127B2, “Method for preparing microspheres and microspheres produced thereby” (Ewha University-Industry Collaboration Foundation, priority 2008, dated 2014)

Columns and labels:
[1] = Anastrazole encapsulation ratio of PLGA microparticles (HPLC); type: physicochemical; details: 60 mg of anastrazole
Procedure: Each of 7E, 4A and 2A polymers was dissolved in 4 mL of ethyl acetate. Then, 60 mg of anastrazole was dissolved to prepare a dispersed phase. The solution was added to 40 mL of 0.5% PVA aqueous solution and stirred. 5 mL of 10 M NaOH was added to the resultant o/w emulsion. After adding 40 mL of distilled water and stirring, microparticles were recovered by filtration. The microparticles were redispersed in 16 mL of 0.5% PVA aqueous solution. After adding distilled water to make 80 mL, the solution was stirred. After filtration, the microparticles were dried overnight in a vacuum dryer.
Similarly, microparticles encapsulating progesterone were prepared using ethyl formate instead of ethyl acetate and using 6 mL of 10 M NaOH.
Some of the microparticles prepared in Example <8-1> were accurately weighed and dissolved in 4 mL of tetrahydrofuran. After diluting 6 times with 50% acetonitrile, the solution was filtered using a 0.45 μm syringe filter to remove the PLGA precipitate. Some of the filtrate (20 μl) was subjected to HPLC (Shimadzu LC-20AD, Luna 5 m C18(2) column) for measurement of anastrazole concentration. Drug encapsulation ratio (%) was calculated using the equations given in Example <7-2>.

[2] = HPLC chromatogram analysis of anastrazole for decomposition or modification products; type: physicochemical; details: ethyl acetate/PLGA (75:25)/NaOH; encapsulated in the microparticles and then recovered; HPLC chromatograms
Procedure: In order to indirectly estimate whether decomposition or modification products of anastrazole are produced during the preparation of microparticles using ethyl acetate/PLGA (75:25)/NaOH as in Example <8-1>, various samples were prepared (as in Example <8-1>) and their chromatograms were analyzed.

[3] = Anastrazole encapsulation ratio of PLGA microparticles (HPLC); type: physicochemical; details: PLGA 7E/0.15 g + 4A 0.1 g; 60 mg of anastrazole; Ethyl formate; 6 mL of 10 M NaOH
[4] = Aripiprazole encapsulation ratio of PLGA microparticles (HPLC); type: physicochemical; details: PLGA 4A/0.25 g; 60 mg of aripiprazole; Ethyl formate; 5 mL of 8 M NaOH
Procedure: (§1) 0.25 g of 4A was dissolved in 4 mL of ethyl formate. Then, 60 mg of aripiprazole was dissolved to prepare a dispersed phase. The solution was added to 40 mL of 0.5% PVA aqueous solution and stirred. After adding 5 mL of 8 M NaOH to the resultant o/w emulsion, followed by reaction for 30 minutes, 40 mL of distilled water was further added and, after stirring, microparticles were recovered by filtration. The microparticles were redispersed in 16 mL of 0.5% PVA aqueous solution. After adding distilled water to make 80 mL, the solution was stirred. After filtration, the microparticles were dried overnight in a vacuum dryer.
(§2) Some of the microparticles including aripiprazole were accurately weighed and dissolved in 4 mL of tetrahydrofuran. After diluting 6 times with ethanol, the solution was filtered to remove the PLGA precipitate. Some of the filtrate (20 μl) was subjected to HPLC (Shimadzu LC-20AD) for measurement of aripiprazole concentration. Drug encapsulation ratio (%) was calculated using the equations given in Example <7-2>.

[5] = Encapsulation ratio of docetaxel, piroxicam, rivastigmine or tolterodine in PLGA microparticles (HPLC); type: physicochemical; details: 0.25 g of 7E, 5 mL of 7 M NaOH
Procedure: Then, 0.25 g of 7E was dissolved to prepare a dispersed phase. The solution was added to 40 mL of 0.5% PVA aqueous solution and stirred. After adding 5 mL of 7 M NaOH to the resultant o/w emulsion, followed by reaction for 30 minutes, 40 mL of distilled water was further added and, after stirring, microparticles were recovered by filtration. The microparticles were redispersed in 16 mL of 0.5% PVA aqueous solution. After adding distilled water to make 80 mL, the solution was stirred. […] After diluting 6 times with ethanol, the solution was filtered to remove the PLGA precipitate.

[6] = background statement on organic solvents; cited from earlier work
[7] = Progesterone encapsulation ratio of PLGA microparticles (HPLC); type: physicochemical
Procedure: 0.25 g of 7E or 4A was dissolved in 4 mL of ethyl acetate. […] After stirring and filtration, microparticles were recovered. The microparticles were redispersed in 16 mL of 0.5% PVA solution and stirred, after adding distilled water to make 80 mL. […] Similarly, microparticles encapsulating progesterone were prepared using ethyl formate instead of ethyl acetate and using 6 mL of 10 M NaOH or 5 mL of 10 M HCl as a decomposition reagent. Some of the microparticles prepared in Example <7-1> were accurately weighed and dissolved in 4 mL of tetrahydrofuran. After diluting 6 times with methanol, the solution was filtered to remove the PLGA precipitate. Some of the filtrate (20 μl) was subjected to HPLC (Shimadzu LC-20AD, Luna 5 m C18(2) column) for measurement of progesterone concentration. Theoretical drug load (%) and actual drug load (%) were calculated from the following equations, and their ratio was defined as drug encapsulation ratio (%). Theoretical drug load (%)=(Weight of drug used (mg)/[Weight of PLGA used (mg)+Weight of drug used (mg)])×100 Actual drug load (%)=(Weight of drug encapsulated in microparticles (mg)/Weight of microparticles used for encapsulation ratio measurement (mg))×100 Drug encapsulation ratio (%)=(Actual drug load (%)/Theoretical drug load (%))×100 0.25 g of 7E was dissolved in 4 mL of isopropyl formate or propyl formate. […] After stirring and filtration, microparticles were recovered. The microparticles were redispersed in 16 mL of 0.5% PVA solution and stirred, after adding distilled water to make 80 mL. After filtration, the microparticles were in a vacuum dryer.

[8] = Thermogravimetric analysis of microparticles; type: physicochemical; details: up to 150° C.; isopropyl formate, 0.25 g of 7E and 250 mg of progesterone; 10° C./min, nitrogen
Procedure: The microparticles prepared in Example <7-3> (using isopropyl formate, 0.25 g of 7E and 250 mg of progesterone) and microparticles not including progesterone were analyzed using a thermogravimetric analyzer (TGA 2050). Nitrogen was used as a purge gas. Change in weight of the microparticles was automatically recorded while increasing temperature at a rate of 10° C./min.

[9] = Risperidone encapsulation ratio of PLGA microparticles (HPLC); type: physicochemical; details: PLGA 4A/0.25 g; 60 mg of risperidone; Ethyl formate; 5 mL of 8 M NaOH
Procedure: as §1, with “risperidone” for “aripiprazole”
as §2, with “risperidone” for “aripiprazole”

[10] = PLGA 2A/0.25 g, Ethyl acetate, 5 mL of 10 M NaOH
[11] = PLGA 4A/0.25 g, Ethyl acetate, 5 mL of 10 M NaOH
[12] = PLGA 7E/0.15 g + 4A 0.1 g, Ethyl formate, 6 mL of 10 M NaOH
[13] = PLGA 7E/0.15 g + 4A/0.1 g, Ethyl acetate, 5 mL of 10 M NaOH
[14] = 50 mg of docetaxel, Ethyl acetate
[15] = 50 mg of piroxicam, Ethyl formate
[16] = PLGA 4A/0.25 g, progesterone 60 mg, 10M NaOH 5 mL, ethyl acetate
[17] = PLGA 4A/0.25 g, progesterone 60 mg, 10M NaOH 6 mL, ethyl formate
[18] = PLGA 4A/0.25 g, progesterone 250 mg, 10M NaOH 5 mL, ethyl acetate
[19] = PLGA 4A/0.25 g, progesterone 250 mg, 10M NaOH 6 mL, ethyl formate
[20] = PLGA 7E/0.25 g, progesterone 60 mg, 10M HCl 5 mL, ethyl formate
[21] = PLGA 7E/0.25 g, progesterone 60 mg, 10M NaOH 5 mL, ethyl acetate
[22] = PLGA 7E/0.25 g, progesterone 60 mg, 10M NaOH 6 mL, ethyl formate
[23] = PLGA 7E/0.25 g, progesterone 100 mg, 10M HCl 5 mL, ethyl formate
[24] = PLGA 7E/0.25 g, progesterone 160 mg, 10M HCl 5 mL, ethyl formate
[25] = PLGA 7E/0.25 g, progesterone 200 mg, 10M HCl 5 mL, ethyl formate
[26] = PLGA 7E/0.25 g, progesterone 250 mg, 10M HCl 5 mL, ethyl formate
[27] = PLGA 7E/0.25 g, progesterone 250 mg, 10M NaOH 5 mL, ethyl acetate
[28] = PLGA 7E/0.25 g, progesterone 250 mg, 10M NaOH 6 mL, ethyl formate
[29] = 40 μl of rivastigmine, Ethyl acetate (table)
[30] = 40 mg of tolterodine, Ethyl formate

With `CC(C)(C#N)c1cc(Cn2cncn2)cc(C(C)(C)C#N)c1` [anastrazole] the “Encapsulation ratio (%) Batch 1” value [1, 10] was 78.5%, the “Encapsulation ratio (%) Batch 2” value [1, 10] was 75.2% and the “Encapsulation ratio (%) Batch 3” value [1, 10] was 73.7%. For the same compound, the “Encapsulation ratio (%) Batch 1” value [1, 11] was 78.1%, the “Encapsulation ratio (%) Batch 2” value [1, 11] was 74.9% and the “Encapsulation ratio (%) Batch 3” value [1, 11] was 77.6%. The “Encapsulation ratio (%) Batch 1” value [1, 12] was 60.8%, the “Encapsulation ratio (%) Batch 2” value [1, 12] was 65.1% and the “Encapsulation ratio (%) Batch 1” value [1, 13] was 75.3%. The “Encapsulation ratio (%) Batch 2” value [1, 13] was 73.8%, the “Encapsulation ratio (%) Batch 3” value [1, 13] was 74.7% and the “decomposition or modification products of anastrazole during the preparation of microparticles” value [2] was “no decomposition or modification products of anastrazole are produced”. The “Encapsulation ratio (%) Batch 3” value [3] was 65.5%.

With `O=C1CCc2ccc(OCCCCN3CCN(c4cccc(Cl)c4Cl)CC3)cc2N1` [aripiprazole] the “Average encapsulation ratio of 3 batches” value [4] was 72.3±2.0%, the “Encapsulation ratio (%) Batch 1” value [4] was 72.2% and the “Encapsulation ratio (%) Batch 2” value [4] was 74.3%. For the same compound, the “Encapsulation ratio (%) Batch 3” value [4] was 70.3%.

In the case of `CC(=O)O[C@@]12CO[C@@H]1C[C@H](O)[C@@]1(C)C(=O)[C@H](O)C3=C(C)[C@@H](OC(=O)[C@H](O)[C@@H](NC(=O)OC(C)(C)C)c4ccccc4)C[C@@](O)([C@@H](OC(=O)c4ccccc4)[C@H]21)C3(C)C` [docetaxel], the “Encapsulation ratio (%) Batch 1” value [5, 14] is reported as 83.2%, the “Encapsulation ratio (%) Batch 2” value [5, 14] is reported as 80.2% and the “Encapsulation ratio (%) Batch 3” value [5, 14] is reported as 84.2%.

For `CCOC(C)=O` [ethyl acetate], the water solubility [6] is given as 8.7 % by weight.

For `ClCCl` [methylene chloride], the water solubility [6] is given as 1.32 % by weight.

For `CN1C(C(=O)Nc2ccccn2)=C(O)c2ccccc2S1(=O)=O` [piroxicam], the “Encapsulation ratio (%) Batch 1” value [5, 15] was 76.2%, the “Encapsulation ratio (%) Batch 2” value [5, 15] was 81.2% and the “Encapsulation ratio (%) Batch 3” value [5, 15] was 79.2%.

In the case of `CC(=O)[C@H]1CC[C@H]2[C@@H]3CCC4=CC(=O)CC[C@]4(C)[C@H]3CC[C@]12C` [progesterone], the “Encapsulation ratio (%) Batch 1” value [7, 16] is reported as 90.5%, the “Encapsulation ratio (%) Batch 2” value [7, 16] is reported as 92.8% and the “Encapsulation ratio (%) Batch 3” value [7, 16] is reported as 95.3%. The “Encapsulation ratio (%) Batch 1” value [7, 17] was 92.0%, the “Encapsulation ratio (%) Batch 2” value [7, 17] was 93.3% and the “Encapsulation ratio (%) Batch 3” value [7, 17] was 95.6%. The “Encapsulation ratio (%) Batch 1” value [7, 18] was 93.2%, the “Encapsulation ratio (%) Batch 2” value [7, 18] was 92.2% and the “Encapsulation ratio (%) Batch 3” value [7, 18] was 98.5%. The “Encapsulation ratio (%) Batch 1” value [7, 19] was 96.2%, the “Encapsulation ratio (%) Batch 2” value [7, 19] was 93.2% and the “Encapsulation ratio (%) Batch 3” value [7, 19] was 100.7%. The “Encapsulation ratio (%) Batch 1” value [7, 20] was 84.1%, the “Encapsulation ratio (%) Batch 2” value [7, 20] was 88.7% and the “Encapsulation ratio (%) Batch 3” value [7, 20] was 86.1%. For the same compound, the “Encapsulation ratio (%) Batch 1” value [7, 21] was 93.8%, the “Encapsulation ratio (%) Batch 2” value [7, 21] was 92.3% and the “Encapsulation ratio (%) Batch 3” value [7, 21] was 96.0%. The “Encapsulation ratio (%) Batch 1” value [7, 22] was 93.9%, the “Encapsulation ratio (%) Batch 2” value [7, 22] was 94.0% and the “Encapsulation ratio (%) Batch 3” value [7, 22] was 91.6%. For the same compound, the “Encapsulation ratio (%) Batch 1” value [7, 23] was 89.0%, the “Encapsulation ratio (%) Batch 2” value [7, 23] was 92.8% and the “Encapsulation ratio (%) Batch 3” value [7, 23] was 91.5%. For the same compound, the “Encapsulation ratio (%) Batch 1” value [7, 24] was 98.9%, the “Encapsulation ratio (%) Batch 2” value [7, 24] was 102.0% and the “Encapsulation ratio (%) Batch 3” value [7, 24] was 96.9%. The “Encapsulation ratio (%) Batch 1” value [7, 25] was 99.2%, the “Encapsulation ratio (%) Batch 2” value [7, 25] was 102.0% and the “Encapsulation ratio (%) Batch 3” value [7, 25] was 95.5%. For the same compound, the “Encapsulation ratio (%) Batch 1” value [7, 26] was 101.0%, the “Encapsulation ratio (%) Batch 2” value [7, 26] was 101.0% and the “Encapsulation ratio (%) Batch 3” value [7, 26] was 99.6%. The “Encapsulation ratio (%) Batch 1” value [7, 27] was 92.8%, the “Encapsulation ratio (%) Batch 2” value [7, 27] was 92.0% and the “Encapsulation ratio (%) Batch 3” value [7, 27] was 97.7%. The “Encapsulation ratio (%) Batch 1” value [7, 28] was 95.5%, the “Encapsulation ratio (%) Batch 2” value [7, 28] was 98.5% and the “Encapsulation ratio (%) Batch 3” value [7, 28] was 99.7%. The “weight loss of the microparticles” value [8] was 0.75%.

For `Cc1nc2n(c(=O)c1CCN1CCC(c3noc4cc(F)ccc34)CC1)CCCC2` [risperidone], the “Average encapsulation ratio of 3 batches” value [9] was 75.0±1.4%, the “Encapsulation ratio (%) Batch 1” value [9] was 75.2% and the “Encapsulation ratio (%) Batch 2” value [9] was 73.6%. For the same compound, the “Encapsulation ratio (%) Batch 3” value [9] was 76.3%.

With `CCN(C)C(=O)Oc1cccc([C@H](C)N(C)C)c1` [rivastigmine] the “Encapsulation ratio (%) Batch 1” value [5, 29] was 74.2%, the “Encapsulation ratio (%) Batch 2” value [5, 29] was 79.2% and the “Encapsulation ratio (%) Batch 3” value [5, 29] was 78.1%.

With `Cc1ccc(O)c([C@H](CCN(C(C)C)C(C)C)c2ccccc2)c1` [tolterodine] the “Encapsulation ratio (%) Batch 1” value [5, 30] was 70.3%, the “Encapsulation ratio (%) Batch 2” value [5, 30] was 77.3% and the “Encapsulation ratio (%) Batch 3” value [5, 30] was 73.2%.
